Experimental data as given in patent US10478464B2, “Compositions and methods of use” (priority 2009, dated 2019).

Legend:
[1] = test system: leukemia cell lines (CCRF-CEM, K-562, SR, MOLT-4, RPMI-8226, HL-60(TB)); test: NCI 60 human tumor cell line screen (MTT), leukemia lines; type: cell-based; settings: 10 μM
[2] = test system: HOP-92 lung cancer cell lines; test: Cell survival, colorimetric MTT assay, HOP-92; type: cell-based, human; settings: 100 μM, 72 hours
Method: 1) Against the lung cancer cell lines: The effect of the racemic mixture of 8-HHA and that of the individual enantiomers, namely S and R enantiomers, were examined on the survival of HOP-92 lung cancer cell lines. The cell viability was examined in the exponential growth phase with 100 μM of 8-HHA for 72 hours using colorimetric MTT assay. In separate assays, HOP-92 cells were treated with different concentrations of the S-enantiomer of 8-HHA ranging from 20-100 μM for 72 hours.

[3] = test system: PLC/PRF/5 liver cancer cell line; test: Cell survival, colorimetric MTT assay, PLC/PRF/5; type: cell-based; settings: 100 μM, 72 hours
Method: (§1) 2) Against the liver cancer cell lines: The effect of the racemic mixture of 8-HHA and that of the individual enantiomers, namely S and R enantiomers, were examined on survival of PLC/PRF/5 (also referred to as “PLC-5” or “PLC5”), Hep3B and SNU449 (also referred to as “SNU”) liver cancer cell lines. The cell viability was examined in the exponential growth phase with 100 μM of 8-HHA for 72 hours using colorimetric MTT assay. In separate assays, PLC-5 cells were treated with different concentrations of S-enantiomer of 8-HHA ranging from 20-100 μM for 72 hours.

[4] = test system: Hep3B liver cancer cell line; test: Cell survival, colorimetric MTT assay, Hep3B; type: cell-based; settings: 100 μM, 72 hours
Method: as §1

[5] = test system: SNU449 liver cancer cell line; test: Cell survival, colorimetric MTT assay, SNU449; type: cell-based; settings: 100 μM, 72 hours
Method: as §1

[6] = Water solubility (statement); type: physicochemical
[7] = test system: PLC5 cells a Hepatocellular Carcinoma cell line; test: Liver xenograft mouse model (PLC5); type: in vivo, BALB/c nu/nu mice
Description: The purpose of this study was to determine anti tumor efficacy of 8-HHA in liver cancer using PLC5 cells a Hepatocellular Carcinoma cell line. The tumor growth and animal survival were considered as primary end point.
Animals and care: Thirty BABL/c nude, non-pregnant and nulliparous female mice that are 5-6 weeks old and weighing 16-20 gms were used in this study. BALB/c nu/nu mice were used because they have been historically used in xenograft studies to test anti-tumor efficacy of drug candidates. Mice were acclimatized for minimum 5 days, under same conditions as for the actual test. Mice were housed at room temperature 68±5° F. with room Relative Humidity of 30-70%, air Exchanges per Hour of a minimum of 10 changes per hour, lights exposure of 12-hour light/dark cycle, full spectrum fluorescent lights. The mice were housed in groups in ventilated micro-isolator cages made up of polycarbonate. The mice were using autoclaved laboratory grade bedding and were provided ad libitum with irradiated pellets and autoclaved water. There were no known contaminants present in the feed, water, or bedding expected to interfere with the test data. The laboratory and animal rooms were maintained as limited-access facilities.
Route of injection and dose: 8-HHA was administered through intraperitoneal (IP) injection. […] For this study, 2 doses-10 mg/kg and 100 mg/kg were used.
Tumor Induction: The cell line PLC5 were cultured according to recommended specifications at Vanas Oncology, in which cells were grown and maintained in RPMI medium containing 10% fetal bovine serum, 2 mM L-Glutamine, 100 units/ml of Streptomycin and 100 units/ml of Penicilin. Cells were trypizinized and counted using the Trypan-blue viability test using a hemocytometer. Cell counts in quadrants of the hemocytometer were converted to a cells/mL value, which will enable isolation of the appropriate number of cells per mouse. Each mouse was inoculated subcutaneously in the right flank region with 0.2 mL of a 50% RPMI/50% Matrigel™ mixture containing a suspension of tumor cells (5×10^6 cells/mouse). Tumors were observed twice weekly until well established. Tumor volume was calculated using the formula: Tumor weight (mg)=(a×b^2/2) where ‘b’ is the smallest diameter and ‘a’ is the largest diameter in millimeters.
Allocation of Animals: Once the established tumors reach a mean calculated volume of approximately 50-100 mg, the mice were randomized, using appropriate software, into treatment groups in order to reduce the variability of tumor sizes per group.
Pre Dose Procedure: Acclimated animals were weighed and observed for clinical signs of toxicity prior to dosing on Day 1.
The first day of dosing is Day 1. On Day 1,8-HHA, and vehicle injections were administered according to the study design in Table 7 below.
Post Dose Procedure: Following treatment, tumor and mouse body weight measurements were recorded twice weekly and gross observation was made at least once daily. Mice with tumors that are not palpable was considered complete regressions. Percentage of mice mortality and time of death will be recorded for every group in the study. Animals may be defined as moribund and sacrificed if one or more of the following criteria are met: • Loss of body weight of 20% or greater in a 1 week period. • Mice that inhibit normal physiological function such as eating, drinking, mobility, and ability to urinate and/or defecate. • Tumors that exceed a maximum size of 2000 mg as measured by calipers. • Ulcerated tumors, or tumors that bleed or produce exudates. • Prolonged, excessive diarrhea leading to excessive weight loss (>20%). • Persistent wheezing and respiratory distress. • Prolonged or excessive pain or distress as defined by clinical observations such as: prostration, hunched posture, paralysis/paresis, distended abdomen, ulcerations, abscesses, seizures, and/or hemorrhages.

[8] = test system: colorectal cancer cell lines (HCT-116, HCT-15, KM12); test: NCI 60 human tumor cell line screen (MTT), colorectal lines; settings: 10 μM; three out of 7 lines
Method: (§2) The screening is a microplate cytotoxicity assays based on a simple colorimetric (MTT) assay which relies on the metabolic reduction of a tetrazolium dye in viable cells to a colored formazan product. A modified protocol was used for the screening of the compound and measures the inhibition of growth of various tumor cell lines. The 8-HHA tested in this assay was at the concentration of 10 μM.

[9] = test system: non-small cell lung cancer cell lines (HOP-92, NCI-H460); test: NCI 60 human tumor cell line screen (MTT), non-small cell lung cancer lines; settings: 10 μM
Method: as §2

Compound: CCCCCCCCC(O)CCCCCCC(=O)O (racemic) [Sample 8-HHA, 8-hydroxy-palmitic acid]
- suppressed growth of leukemia cell lines [1]: 40-96%
- reduced the survival of HOP92 cell lines by [2]: 25%
- reduced the survival of PLC-5 cell line by [3]: 52%
- reduced the survival of Hep3B cell line by [4]: 25%
- effect on survival of SNU cell line [5]: no major effect
- water solubility [6]: poorly water soluble
- tumor volume decrease compared to the control group ([7]; T1 10 mg/Kg, day 4): 44.5%
- tumor volume decrease compared to the control group ([7]; T1 10 mg/Kg, day 9): 49.8%
- tumor volume decrease compared to the control group ([7]; T1 10 mg/Kg, day 11): 72.3%
- tumor volume decrease compared to the control group ([7]; T1 10 mg/Kg, day 16): 77.7%
- tumor volume decrease compared to the control group ([7]; T1 10 mg/Kg, day 18): 78.4%
- tumor volume decrease compared to the control group ([7]; T2 100 mg/Kg, day 4): 56.3%
- tumor volume decrease compared to the control group ([7]; T2 100 mg/Kg, day 9): 61.1%
- tumor volume decrease compared to the control group ([7]; T2 100 mg/Kg, day 11): 81.1%
- tumor volume decrease compared to the control group ([7]; T2 100 mg/Kg, day 16): 87.9%
- tumor volume decrease compared to the control group ([7]; T2 100 mg/Kg, day 18): 88.3%
- tumor growth inhibition, in words ([7]; both T1 (10 mg/Kg) and T2 (100 mg/Kg)): significantly inhibited tumor growth in mice from day 4
- growth suppression of colorectal cancer cell lines, in words [8]: moderate evidence of growth suppression
- inhibition of growth on non-small cell lung cancer cell lines, in words [9]: remarkable inhibition of growth
